We go through nine compounds from US5436369A, “Alicyclic phospholipase A2 inhibitors” (Bristol-Myers Squibb Company, priority 1994, dated 1995).

Structures are written as SMILES.

In one experiment the target is T1, PLA2 (Homo sapiens, UniProt P14555).
T1 construct: The enzyme is isolated from human platelets; from tissue; host or cells: human platelets
T1 sequence (P14555 21-144): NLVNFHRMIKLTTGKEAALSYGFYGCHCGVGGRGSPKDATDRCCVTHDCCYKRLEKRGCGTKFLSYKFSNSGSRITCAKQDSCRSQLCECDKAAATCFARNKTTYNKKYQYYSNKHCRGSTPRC
The experiment in a line: PLA2 Inhibition Assay (14C-oleate labeled E. coli membrane substrate). The experiment is classed as biochemical. As to conditions: Table 3, Structure 18 (Type IB); 100 μM; enzyme isolated from human platelets. The procedure:
The method used is similar to that reported by Franson, et al. [Jesse, R. L. and Franson R. C., Biochim. Biophys. Acta 575:467-470 (1979); Franson, R. C., Patriarca, P., and Elsback, P., J. Lipid Res. 15: 380-388 (1974)]. The enzyme is isolated from human platelets. The substrate used consists of ^14 C-oleate labeled Escherichia coli membranes. E. coli cells are grown in the presence of ^14 C-oleic acid and then autoclaved to prepare the membranes.
Various concentrations of test compounds are pre-incubated with PLA2 (3.6 μg/mL in a buffer consisting of 25 mM HEPES (pH 7)), 150 mM NaCl, 5.0 mM CaCl2, and 10% DMSO (v/v, test compound solvent) at 37° C. for 7 minutes. The E. coli membrane substrate is then added (0.1 mM phospholipid, 0.005 μCi ^14 C) and the reaction is then incubated at 37° C. for 30 minutes. The reaction is then terminated by the addition of 1.9 mL tetrahydrofuran (THF), and the entire solution is applied to a solid-phase extraction column (aminopropyl resin, Analytichem). The column is rinsed with an additional 1 mL of THF. The free fatty acid product of the reaction is then eluted from the column with 1 mL of 2% acetic acid in THF and collected in a scintillation vial. The amount of free fatty acid product is determined by liquid scintillation counting. The amount of inhibition produced by the test compound is calculated by comparing the counts obtained in the presence of the compound to those obtained in its absence (solvent only). Background counts were determined by performing incubations in the absence of enzyme.
Percent inhibition is determined by the equation: [formula]
The inhibition is the share of the control response that was lost under treatment. A high value points to a strong effect. In turn, `CCCCCCCCCCOc1ccc(/C=C(/C=C/C(=O)O)c2cccc(C(=O)O)c2)cc1OCCCCCCCCCC` [Structure 18d, (2E),(4Z)-4-(3-Carboxyphenyl)-5-(3,4-bisdecyloxyphenyl)-2,4-pentadienoic a cid] returned an inhibition at 100 µM of 91%.

`CC1(C)CCC(C)(C)c2cc(CC/C=C(/C=C/C(=O)O)c3cccc(C(=O)O)c3)ccc21` [Structure 18e, (2E),(4Z)-4-(3-Carboxyphenyl)-7-(5,6,7,8-tetrahydro-5,5,8,8-tetramethyl-2-naphthalenyl)-2,4-heptadienoic acid] yielded an inhibition at 100 µM of 55%.

The same experiment, now with this note: Table 4, Structure 20 (Type IB); 100 μM; enzyme isolated from human platelets.
On to `CC1(C)CCC(C)(C)c2cc(CC/C=C(/C=C/C(=O)O)c3cccc(C(F)(F)F)c3)ccc21` [Structure 20a, (2E),(4Z)-4-(3-Trifluoromethylphenyl)-7-(5,6,7,8-tetrahydro-5,5,8,8-tetramethyl-2-naphthalenyl)-2,4-heptadienoic acid], for which testing at 100 µM gave an inhibition of 52%. In the case of `CC1(C)CCC(C)(C)c2cc(CC/C=C(/C=C/C(=O)O)c3ccc(F)cc3)ccc21` [Structure 20b], 100 µM produced 73% inhibition.

The compound `CC1(C)CCC(C)(C)c2cc(CC/C=C(/C=C/C(=O)O)c3cccc(F)c3)ccc21` [Structure 20c, (2E),(4Z)-4-(3-Fluorophenyl)-7-(5,6,7,8-tetrahydro-5,5,8,8-tetramethyl-2-naphthalenyl)-2,4-heptadienoic acid] came in with an inhibition at 100 µM of 67%. Turning to `CC1(C)CCC(C)(C)c2cc(CC/C=C(/C=C/C(=O)O)c3ccccc3)ccc21` [Structure 20d, (2E),(4Z)-4-Phenyl-7-(5,6,7,8-tetrahydro-5,5,8,8-tetramethyl-2-naphthalenyl)-2,4-heptadienoic acid], the inhibition at 100 µM came out at 62%. In the case of `COc1ccc(CC/C=C(/C=C/C(=O)O)c2cccc(C(F)(F)F)c2)cc1C12CC3CC(CC(C3)C1)C2` [Structure 20e, (2Z),(4Z)-4-(3-Trifluoromethylphenyl)-7-[3-(1-adamantyl)-4-methoxyphenyl]-2,4-heptadienoic acid], the inhibition at 100 µM amounted to 81%.

As for `COc1cc(CC/C=C(/C=C/C(=O)O)c2cccc(C(F)(F)F)c2)ccc1C12CC3CC(CC(C3)C1)C2` [Structure 20f, (2Z),(4Z)-4-(3-Trifluoromethylphenyl)-7-[4-(1-adamantyl)-3-methoxyphenyl]-2,4-heptadienoic acid], 100 µM produced 90% inhibition.

The same experiment, now with this note: Table 6, Structure 40 (Type ID); 100 μm as printed; enzyme isolated from human platelets.
On to `CC1(C)CCC(C)(C)c2cc(CC/C=C(/CCC(=O)O)c3cccc(C(F)(F)F)c3)ccc21` [Structure 40, (Z)-4-(3-trifluoromethylphenyl)-7-(5,6,7,8-tetrahydro-5,5,8,8-tetramethyl-2-naphthalenyl)-4-heptenoic acid], for which the “% Inhibition of PLA2 AT 100 μm” value turned out to be 79%.
